Source: ChEMBL document CHEMBL2150979, “Xentrivalpeptides A-Q: depsipeptide diversification in Xenorhabdus” (J Nat Prod, 2012)
Activity calls are given as the source filed them.

Experiments:
Bacillus subtilis = assay: Antibacterial activity against Bacillus subtilis; assay type: functional, organism-based
L929 = assay: Cytotoxicity against mouse L929 cells after 5 days by MTT assay; assay type: cell-based; details: l929, 120 h
Pseudomonas aeruginosa = assay: Antibacterial activity against Pseudomonas aeruginosa; assay type: functional, organism-based
Escherichia coli = assay: Antibacterial activity against Escherichia coli; assay type: functional, organism-based
Staphylococcus aureus = assay: Antibacterial activity against Staphylococcus aureus; assay type: functional, organism-based
Enterococcus faecalis = assay: Antibacterial activity against Enterococcus faecalis; assay type: functional, organism-based
Galleria mellonella = assay: Hemocyte cytotoxicity against Galleria mellonella larvae assessed as actin cytoskeletal ruffling at 100 ug/mL after 4 hrs; assay type: organism-based; details: in vivo
Saccharomyces cerevisiae = assay: Antifungal activity against Saccharomyces cerevisiae; assay type: functional, organism-based
HL-60 = assay: Cytotoxicity against human HL60 cells after 5 days by MTT assay; assay type: functional, cell-based
Micrococcus luteus = assay: Antibacterial activity against Micrococcus luteus; assay type: functional, organism-based
[1] = system: Staphylococcus epidermidis; assay: Antibacterial activity against Staphylococcus epidermidis; assay type: functional, organism-based

Measured: Activity

CC(C)[C@H](NC(=O)Cc1ccccc1)C(=O)N[C@@H]1C(=O)N[C@H](Cc2ccccc2)C(=O)N2CCC[C@H]2C(=O)N[C@@H](C(C)C)C(=O)N[C@@H](C(C)C)C(=O)N[C@@H](C(C)C)C(=O)O[C@@H]1C [XENTRIVALPEPTIDE A]
Toxic: Galleria mellonella
Non-toxic: L929
inactive: Bacillus subtilis | Pseudomonas aeruginosa | Escherichia coli | Staphylococcus aureus | Enterococcus faecalis | Saccharomyces cerevisiae | HL-60 | Micrococcus luteus | [1]
